From ChEMBL document CHEMBL5143564, “PES derivative PESA is a potent tool to globally profile cellular targets of PES” (Bioorg Med Chem Lett, 2022)
Active and inactive are the calls of the source. The calls are words filed in the database; no cut-off is given here.

Columns and labels:
[1] = target: T1, D-3-phosphoglycerate dehydrogenase (Homo sapiens) (UniProt O43175); experiment: Binding affinity to D-3-phosphoglycerate dehydrogenase in human MDA-MB-453 cells measured after 6 hrs by pull-down assay; type: cell-based; conditions: dose <= 20.0 µM, DDE = dose-dependent effect
T1 sequence (whole entry): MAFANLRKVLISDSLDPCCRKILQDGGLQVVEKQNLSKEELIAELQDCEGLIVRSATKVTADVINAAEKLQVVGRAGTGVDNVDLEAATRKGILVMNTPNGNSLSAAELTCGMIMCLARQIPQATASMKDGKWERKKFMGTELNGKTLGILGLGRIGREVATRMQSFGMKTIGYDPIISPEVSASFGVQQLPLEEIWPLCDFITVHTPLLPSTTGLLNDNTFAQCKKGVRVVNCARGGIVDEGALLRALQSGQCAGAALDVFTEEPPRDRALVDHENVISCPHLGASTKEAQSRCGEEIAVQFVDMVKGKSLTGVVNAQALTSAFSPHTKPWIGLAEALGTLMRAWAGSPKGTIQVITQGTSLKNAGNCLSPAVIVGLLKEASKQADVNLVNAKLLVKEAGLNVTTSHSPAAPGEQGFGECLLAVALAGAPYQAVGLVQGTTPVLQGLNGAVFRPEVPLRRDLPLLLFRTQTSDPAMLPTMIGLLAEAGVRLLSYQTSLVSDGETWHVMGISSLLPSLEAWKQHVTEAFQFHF

[2] = GSH reactivity in pH 7.4 buffer assessed as GSH adduct formation at 1 mM by HPLC analysis; type: physicochemical; conditions: pH 7.4, 1000 µM
DOHH-2 [3] = experiment: Cytotoxicity against human DOHH-2 cells up to 20 uM measured after 24 hrs; type: functional, cell-based
DOHH-2 [4] = experiment: Induction of autophagy in human DOHH-2 cells assessed as reduction in p62 expression at 8 uM measured after 4 to 24 hrs by Western blot analysis; type: functional, cell-based; conditions: time 4-24 hrs
DOHH-2 [5] = experiment: Induction of autophagy in human DOHH-2 cells assessed as change in transformation of LC3B1 to LC3B2 expression at 8 uM measured after 4 to 24 hrs by Western blot analysis; type: functional, cell-based; conditions: time 4-24 hrs
[6] = target: T2, Peroxiredoxin-1 (Homo sapiens) (UniProt Q06830); experiment: Binding affinity to PRDX1 in human DOHH-2 cells measured after 6 hrs by pull-down assay; type: cell-based; conditions: DDE = dose-dependent effect
T2 sequence (whole entry): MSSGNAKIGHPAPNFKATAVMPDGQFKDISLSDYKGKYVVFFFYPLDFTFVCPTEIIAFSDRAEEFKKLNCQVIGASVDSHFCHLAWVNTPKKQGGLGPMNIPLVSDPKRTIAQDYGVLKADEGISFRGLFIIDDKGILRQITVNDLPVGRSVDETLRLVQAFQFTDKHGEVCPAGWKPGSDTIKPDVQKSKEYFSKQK

[7] = target: T3, Tubulin alpha (Homo sapiens) (UniProt P0DPH7+P68366+Q71U36+P68363+Q9BQE3+Q6PEY2+A6NHL2+Q9NY65); experiment: Binding affinity to alpha-tubulin in human DOHH-2 cells measured after 6 hrs by pull-down assay; type: cell-based; conditions: DDE = dose-dependent effect
[8] = target: Tubulin beta (Homo sapiens) (UniProt P68371+Q9H4B7+Q13509+P04350+Q3ZCM7+P07437+Q13885+Q9BVA1+Q9BUF5+A6NNZ2); experiment: Binding affinity to beta-tubulin in human DOHH-2 cells measured after 6 hrs by pull-down assay; type: cell-based; conditions: DDE = dose-dependent effect
[9] = target: T4, Protein disulfide-isomerase A3 (Homo sapiens) (UniProt P30101); experiment: Binding affinity to PDIA3 in human DOHH-2 cells measured after 6 hrs by pull-down assay; type: cell-based; conditions: DDE = dose-dependent effect
T4 sequence (whole entry): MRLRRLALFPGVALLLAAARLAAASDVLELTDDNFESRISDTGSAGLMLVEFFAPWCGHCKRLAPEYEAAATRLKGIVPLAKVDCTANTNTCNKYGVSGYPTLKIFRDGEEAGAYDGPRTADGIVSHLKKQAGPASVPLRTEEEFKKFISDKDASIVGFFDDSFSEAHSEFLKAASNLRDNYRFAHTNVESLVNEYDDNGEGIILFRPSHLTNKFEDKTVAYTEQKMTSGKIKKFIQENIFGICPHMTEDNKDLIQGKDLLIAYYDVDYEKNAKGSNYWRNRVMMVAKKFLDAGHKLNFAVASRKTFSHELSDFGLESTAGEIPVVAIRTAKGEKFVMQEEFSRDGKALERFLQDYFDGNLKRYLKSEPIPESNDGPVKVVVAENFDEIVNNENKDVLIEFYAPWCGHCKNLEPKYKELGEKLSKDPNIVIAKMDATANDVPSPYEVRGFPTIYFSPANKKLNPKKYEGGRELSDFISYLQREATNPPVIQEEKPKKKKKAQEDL

[10] = target: Glutathione S-transferase 3, mitochondrial (Homo sapiens) (UniProt O14880); experiment: Binding affinity to MGST3 in human DOHH-2 cells measured after 6 hrs by pull-down assay; type: cell-based; conditions: DDE = dose-dependent effect
Sequence of Glutathione S-transferase 3, mitochondrial (Homo sapiens) (O14880 whole entry): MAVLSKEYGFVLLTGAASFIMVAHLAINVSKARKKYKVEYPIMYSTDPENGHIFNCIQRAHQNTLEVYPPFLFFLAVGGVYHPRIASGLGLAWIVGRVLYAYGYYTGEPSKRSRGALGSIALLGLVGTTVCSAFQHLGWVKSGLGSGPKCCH

[11] = target: T5, Protein disulfide-isomerase A4 (Homo sapiens) (UniProt P13667); experiment: Binding affinity to PDIA4 in human MDA-MB-453 cells measured after 6 hrs by pull-down assay; type: cell-based; conditions: dose <= 20.0 µM, DDE = dose-dependent effect
T5 sequence (whole entry): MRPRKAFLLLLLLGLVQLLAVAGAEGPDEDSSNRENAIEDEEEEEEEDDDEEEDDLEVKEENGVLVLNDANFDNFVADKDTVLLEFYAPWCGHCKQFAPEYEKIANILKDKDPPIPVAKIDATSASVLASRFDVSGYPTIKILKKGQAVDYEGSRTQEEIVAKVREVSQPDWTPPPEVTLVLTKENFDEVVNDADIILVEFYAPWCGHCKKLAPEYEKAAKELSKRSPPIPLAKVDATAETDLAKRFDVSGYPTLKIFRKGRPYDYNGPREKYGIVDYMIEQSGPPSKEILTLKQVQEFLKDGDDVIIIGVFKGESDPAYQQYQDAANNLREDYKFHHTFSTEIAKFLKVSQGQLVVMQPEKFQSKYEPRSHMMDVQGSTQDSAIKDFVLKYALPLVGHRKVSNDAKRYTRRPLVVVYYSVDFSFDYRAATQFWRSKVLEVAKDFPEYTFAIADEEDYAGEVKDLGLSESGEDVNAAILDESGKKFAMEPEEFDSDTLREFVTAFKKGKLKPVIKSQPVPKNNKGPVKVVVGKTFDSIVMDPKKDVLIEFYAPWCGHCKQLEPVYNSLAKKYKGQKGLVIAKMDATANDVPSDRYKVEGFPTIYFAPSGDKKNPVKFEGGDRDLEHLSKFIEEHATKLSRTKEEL

[12] = target: T3, Tubulin alpha (Homo sapiens); experiment: Binding affinity to alpha-tubulin in human DOHH-2 cells by MS analysis; type: cell-based
[13] = target: T6, Glutathione S-transferase omega-1 (Homo sapiens) (UniProt P78417); experiment: Binding affinity to GSTO1 in human DOHH-2 cells by MS analysis; type: cell-based
T6 sequence (whole entry): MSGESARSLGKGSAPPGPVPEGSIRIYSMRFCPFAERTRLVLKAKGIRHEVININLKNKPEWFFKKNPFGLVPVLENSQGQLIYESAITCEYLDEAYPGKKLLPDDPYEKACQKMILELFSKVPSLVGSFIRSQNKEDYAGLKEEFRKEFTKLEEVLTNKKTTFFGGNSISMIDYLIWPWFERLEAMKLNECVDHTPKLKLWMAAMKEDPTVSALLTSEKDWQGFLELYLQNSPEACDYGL

Activity [1]: Dde | Activity [2]: Active | Activity [6]: Dde | Activity [7]: Dde | Activity [8]: Dde | Activity [9]: Dde | Activity [10]: Dde | Activity [11]: Dde | Activity [12]: Active | Activity [13]: Active
Compound: C#Cc1cccc(C#CS(N)(=O)=O)c1
Activity (DOHH-2 [3]): Active | Activity (DOHH-2 [4]): Active | Activity (DOHH-2 [5]): Active
